PubChem BioAssay (NCI)
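Method: 48-hour compound exposure of cells in 96-well plates, five concentrations, linear interpolation of endpoints. GI50 is the concentration that inhibits growth by half. TGI: total growth inhibition.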

How the values were obtained:
Experiment in all cases: growth of human tumour cells (NCI), 48 h
[1] = system: RXF 393 renal
[2] = system: MOLT-4 leukemia
[3] = system: TK-10 renal
[4] = system: MCF7 breast
[5] = system: UACC-62 melanoma
[6] = system: MALME-3M melanoma
[7] = system: OVCAR-3 ovarian
[8] = system: HT29 colon
[9] = system: KM12 colon
[10] = system: RPMI-8226 leukemia
[11] = system: SK-OV-3 ovarian
[12] = system: NCI-H460 lung
[13] = system: SF-539 CNS
[14] = system: COLO 205 colon
[15] = system: MDA-MB-435
[16] = system: A498 renal
[17] = system: SK-MEL-2 melanoma
[18] = system: ACHN renal
[19] = system: SNB-75 CNS
[20] = system: U251 CNS
[21] = system: MDA-MB-231 breast
[22] = system: A549 NSCLC
[23] = system: HOP-92 NSCLC
[24] = system: HOP-62 NSCLC
[25] = system: UACC-257 melanoma
[26] = system: NCI-H226 lung
[27] = system: SF-268 CNS
[28] = system: HCC-2998 colon
[29] = system: HCT-15 colon
[30] = system: UO-31 renal
[31] = system: OVCAR-5 ovarian
[32] = system: K-562 leukemia
[33] = system: HL-60(TB) leukemia
[34] = system: PC-3 prostate
[35] = system: SNB-19 CNS
[36] = system: CCRF-CEM leukemia
[37] = system: 786-0 renal
[38] = system: NCI-H23 lung
[39] = system: IGROV1 ovarian
[40] = system: SR leukemia
[41] = system: OVCAR-8 ovarian
[42] = system: SN12C renal
[43] = system: SK-MEL-5 melanoma
[44] = system: DU-145 prostate
[45] = system: SK-MEL-28 melanoma
[46] = system: M14 melanoma
[47] = system: EKVX NSCLC
[48] = system: HS 578T breast
[49] = system: SF-295 CNS
[50] = system: SW-620 colon
[51] = system: BT-549 breast
[52] = system: OVCAR-4 ovarian
[53] = system: NCI-H522 lung
[54] = system: MDA-N
[55] = system: HCT-116 colon
[56] = system: NCI/ADR-RES ovarian
[57] = system: CAKI-1 renal
[58] = system: LOX IMVI melanoma
[59] = system: T-47D breast

What does the source list for `CC(C)(Cl)C(Br)CCC(=CCCl)CBr` (mixture of isomers)?
TGI [1]: 7.57 µM; TGI [2]: > 21.2 µM; TGI [3]: 5.21 µM; TGI [4]: 2.62 µM; TGI [5]: 5.41 µM; TGI [6]: 4.85 µM; TGI [7]: 3.9 µM; TGI [8]: 3.55 µM; TGI [9]: 4.04 µM; TGI [10]: 4.38 µM; TGI [11]: 31.2 µM; TGI [12]: 5.71 µM; TGI [13]: 3.96 µM; TGI [14]: 5.15 µM; TGI [15]: 3.71 µM; TGI [16]: 9.22 µM; TGI [17]: 9.93 µM; TGI [18]: 7.85 µM; TGI [19]: 8.18 µM; TGI [20]: 5.59 µM; TGI [21]: 3.5 µM; TGI [22]: 32.8 µM; TGI [23]: 4.03 µM; TGI [24]: 8.33 µM; TGI [25]: 6.81 µM; TGI [26]: 45 µM; TGI [27]: 4.21 µM; TGI [28]: 4.22 µM; TGI [29]: 3 µM; TGI [30]: 3.42 µM; TGI [31]: 21.4 µM; TGI [32]: > 20.1 µM; TGI [33]: 2.6 µM; TGI [34]: 7.22 µM; TGI [35]: 6.87 µM; TGI [36]: > 21.1 µM; TGI [37]: 3.77 µM; TGI [38]: 4.28 µM; TGI [39]: 6.73 µM; TGI [40]: 3.92 µM; TGI [41]: 5.26 µM; TGI [42]: 7.06 µM; TGI [43]: 11.9 µM; TGI [44]: 10.7 µM; TGI [45]: 5.65 µM; TGI [46]: 4.05 µM; TGI [47]: 36.1 µM; TGI [48]: 16.4 µM; TGI [49]: 13 µM; TGI [50]: 4.43 µM; TGI [51]: 6.24 µM; TGI [52]: 5.31 µM; TGI [53]: 2.24 µM; TGI [54]: 3.28 µM; TGI [55]: 3.67 µM; TGI [56]: 24.3 µM

Which results are given for `CN(C)C(=O)[C@H](O)[C@H](Cc1ccccc1)NC(=O)c1cc2cc(Cl)ccc2[nH]1`?
GI50 [1]: 20 µM; TGI [1]: 62.9 µM; GI50 [2]: 21 µM; TGI [2]: 79.4 µM; GI50 [3]: 24.3 µM; TGI [3]: 67 µM; GI50 [4]: 22.1 µM; TGI [4]: > 83.3 µM; GI50 [5]: 13.5 µM; TGI [5]: 32.7 µM; GI50 [6]: 16.2 µM; TGI [6]: 44.1 µM; GI50 [7]: 18.5 µM; TGI [7]: 43.5 µM; GI50 [8]: 20.3 µM; TGI [8]: 48.8 µM; GI50 [9]: 27.2 µM; TGI [9]: > 87.7 µM; GI50 [10]: 19.5 µM; TGI [10]: 66.6 µM; GI50 [11]: 29.1 µM; TGI [11]: 97.8 µM; GI50 [12]: 22 µM; TGI [12]: 56.1 µM; GI50 [13]: 20.2 µM; TGI [13]: 43.3 µM; GI50 [14]: 16.1 µM; TGI [14]: 30.3 µM; GI50 [15]: 22.9 µM; TGI [15]: 70.1 µM; GI50 [16]: 12.1 µM; TGI [16]: 54.1 µM; GI50 [17]: 17.2 µM; TGI [17]: 37.2 µM; GI50 [18]: 22.2 µM; TGI [18]: 60.8 µM; GI50 [19]: 17.4 µM; TGI [19]: 65.6 µM; GI50 [20]: 17.9 µM; TGI [20]: 42.5 µM; GI50 [21]: 19.6 µM; TGI [21]: 52.8 µM; GI50 [22]: 24 µM; TGI [22]: > 93.3 µM; GI50 [23]: 17 µM; TGI [23]: 56.8 µM; GI50 [24]: 22.6 µM; TGI [24]: 66.6 µM; GI50 [25]: 16.2 µM; TGI [25]: 43.5 µM; GI50 [26]: 23 µM; TGI [26]: > 88.2 µM; GI50 [27]: 21.1 µM; TGI [27]: 73.3 µM; GI50 [28]: 16.3 µM; TGI [28]: 38.1 µM; GI50 [29]: 22.4 µM; TGI [29]: 81.5 µM; GI50 [57]: 19.3 µM; TGI [57]: > 77.5 µM; GI50 [30]: 14.8 µM; TGI [30]: 39.8 µM; GI50 [31]: 19.1 µM; TGI [31]: 49.9 µM; GI50 [32]: 25.8 µM; TGI [32]: > 100 µM; GI50 [33]: 19.1 µM; TGI [33]: 54.1 µM; GI50 [34]: 24.4 µM; TGI [34]: > 89.6 µM; GI50 [35]: 26.1 µM; TGI [35]: > 100 µM; GI50 [36]: 30.2 µM; TGI [36]: > 100 µM; GI50 [37]: 27.3 µM; TGI [37]: > 85.2 µM; GI50 [38]: 25.8 µM; TGI [38]: > 100 µM; GI50 [39]: 22.4 µM; TGI [39]: 69.1 µM; GI50 [40]: 26.6 µM; TGI [40]: 88.7 µM; GI50 [41]: 28.8 µM; TGI [41]: > 100 µM; GI50 [42]: 23.5 µM; TGI [42]: > 95.1 µM; GI50 [43]: 15.6 µM; TGI [43]: 30.6 µM; GI50 [44]: 33.3 µM; TGI [44]: > 100 µM; GI50 [45]: 19 µM; TGI [45]: 54.5 µM; GI50 [46]: 23.2 µM; TGI [46]: 67.6 µM; GI50 [47]: 25.7 µM; TGI [47]: > 100 µM; GI50 [48]: 27.5 µM; TGI [48]: > 100 µM; GI50 [58]: 17 µM; TGI [58]: 38.5 µM; GI50 [59]: 25.1 µM; TGI [59]: > 96.7 µM; GI50 [49]: 17.3 µM; TGI [49]: 39 µM; GI50 [50]: 26.4 µM; TGI [50]: > 100 µM; GI50 [51]: 22.8 µM; TGI [51]: 72.1 µM; GI50 [52]: 25.8 µM; TGI [52]: > 100 µM; GI50 [53]: 21.5 µM; TGI [53]: 68.7 µM; GI50 [55]: 25 µM; TGI [55]: > 87 µM; GI50 [56]: 22.7 µM; TGI [56]: > 100 µM

How did the TGI [1] turn out when `CC(C)CC(O)P(=O)(O)O` (stereo unspecified) was run?
The TGI was greater than 100 µM.

And the TGI [2]?
The TGI was greater than 100 µM.

And the TGI [3]?
Its TGI is greater than 100 µM.

What about the TGI [4] of the same compound?
Its TGI is greater than 100 µM.

What about the TGI [5] of the same compound?
The TGI was greater than 100 µM.

And the TGI [7]?
Its TGI is greater than 100 µM.

What about the TGI [8] of the same compound?
Its TGI is greater than 100 µM.

What about the TGI [9] of the same compound?
Its TGI is greater than 100 µM.

And the TGI [10]?
The TGI was greater than 100 µM.

What about the TGI [11] of the same compound?
The TGI was greater than 100 µM.

And the TGI [12]?
Its TGI is greater than 100 µM.

And the TGI [14]?
Its TGI is greater than 100 µM.

What about the TGI [15] of the same compound?
The TGI was greater than 100 µM.

And the TGI [16]?
Its TGI is greater than 100 µM.

What about the TGI [17] of the same compound?
The TGI was greater than 100 µM.

And the TGI [18]?
Its TGI is greater than 100 µM.

What about the TGI [19] of the same compound?
Its TGI is greater than 100 µM.

What about the TGI [20] of the same compound?
The TGI was greater than 100 µM.

And the TGI [21]?
The TGI was greater than 100 µM.

And the TGI [22]?
Its TGI is greater than 100 µM.

What about the TGI [24] of the same compound?
The TGI was greater than 100 µM.

And the TGI [25]?
The TGI was greater than 100 µM.

What about the TGI [26] of the same compound?
The TGI was greater than 100 µM.

And the TGI [28]?
The TGI was greater than 100 µM.

What about the TGI [57] of the same compound?
Its TGI is greater than 100 µM.

And the TGI [30]?
Its TGI is greater than 100 µM.

What about the TGI [31] of the same compound?
Its TGI is greater than 100 µM.

What about the TGI [32] of the same compound?
The TGI was greater than 100 µM.

What about the TGI [33] of the same compound?
The TGI was greater than 100 µM.

And the TGI [34]?
The TGI was greater than 100 µM.

What about the TGI [35] of the same compound?
Its TGI is greater than 100 µM.

What about the TGI [37] of the same compound?
Its TGI is greater than 100 µM.

What about the TGI [42] of the same compound?
The TGI was greater than 100 µM.

And the TGI [43]?
The TGI was greater than 100 µM.

What about the TGI [44] of the same compound?
The TGI was greater than 100 µM.

What about the TGI [45] of the same compound?
The TGI was greater than 100 µM.

What about the TGI [46] of the same compound?
Its TGI is greater than 100 µM.

What about the TGI [47] of the same compound?
Its TGI is greater than 100 µM.

What about the TGI [59] of the same compound?
Its TGI is greater than 100 µM.

And the TGI [49]?
Its TGI is greater than 100 µM.

What about the TGI [50] of the same compound?
The TGI was greater than 100 µM.

And the TGI [52]?
Its TGI is greater than 100 µM.

And the TGI [54]?
The TGI was greater than 100 µM.

And the TGI [55]?
The TGI was greater than 100 µM.
